Assay results from patent US8299048B2, “Hexahydrocyclopentyl[f]indazole sulfonamides and derivatives thereof as selective glucocorticoid receptor modulators” (Merck Sharp & Dohme Corp., priority 2008, dated 2012).

Molecular target: T1, human GR (Homo sapiens, UniProt P04150)
T1 sequence (P04150 1-777): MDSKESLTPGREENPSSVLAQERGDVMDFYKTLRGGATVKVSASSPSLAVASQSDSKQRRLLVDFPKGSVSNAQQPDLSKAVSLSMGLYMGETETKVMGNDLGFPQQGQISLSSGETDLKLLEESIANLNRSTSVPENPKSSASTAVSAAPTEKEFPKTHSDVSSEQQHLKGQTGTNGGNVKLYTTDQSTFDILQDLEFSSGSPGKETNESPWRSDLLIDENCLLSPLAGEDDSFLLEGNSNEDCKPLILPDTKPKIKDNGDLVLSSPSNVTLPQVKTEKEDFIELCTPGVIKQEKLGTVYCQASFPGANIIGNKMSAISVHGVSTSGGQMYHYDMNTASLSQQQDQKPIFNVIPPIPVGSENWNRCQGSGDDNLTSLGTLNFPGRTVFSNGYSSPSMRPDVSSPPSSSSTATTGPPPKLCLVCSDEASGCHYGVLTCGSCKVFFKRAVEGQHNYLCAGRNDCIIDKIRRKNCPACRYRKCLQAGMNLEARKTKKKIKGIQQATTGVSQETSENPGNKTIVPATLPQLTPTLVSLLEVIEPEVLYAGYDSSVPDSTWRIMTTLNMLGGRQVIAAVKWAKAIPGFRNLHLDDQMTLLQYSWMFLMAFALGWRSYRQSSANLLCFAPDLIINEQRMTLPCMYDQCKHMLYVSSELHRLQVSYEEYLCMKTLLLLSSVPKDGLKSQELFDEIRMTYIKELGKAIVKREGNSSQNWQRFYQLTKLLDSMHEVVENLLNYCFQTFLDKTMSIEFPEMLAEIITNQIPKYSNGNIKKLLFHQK
Assay: Trans-Activation Modulation of Glucocorticoid Receptor (GRAMMER), MMTV-LUC reporter, agonist mode
Type: cell-based
Set-up: endogenous in cells
Settings: for Emax: A549, A549 cells, maximum activity, read-out: Transactivation A549 Cells GRAMMER Emax; for EC50: A549 cells, inflection point, read-out: Transactivation A549 Cells GRAMMER IP
Summary of the method: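 Readout is luciferase from a modified MMTV LTR promoter after 24 h compound exposure alongside 10 nM dexamethasone (100% activity reference), DMSO ≤1%.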

SMILES | Emax [%] | EC50 [nM]
Cn1cnc(S(=O)(=O)N(CC#N)C[C@H]2CCC3=Cc4c(cnn4-c4ccc(F)cc4)C[C@@]32C)c1 [Example 37, N-(cyanomethyl)-N-{[(4αR,5S)-1-(4-fluorophenyl}-4α-methyl-1,4,4α,5,6,7-hexahydrocyclopenta[f]indazol-5-yl]methyl}-1-methyl-1H-imidazole-4-sulfonamide] | 2.8 | 2190
COCCN(C[C@H]1CCC2=Cc3c(cnn3-c3ccc(F)cc3)C[C@@]21C)S(=O)(=O)c1cn(C)nc1C(F)(F)F [Example 172, N-{[(4αR,5S)-1-(4-fluorophenyl)-4α-methyl-1,4,4α,5,6,7-hexahydrocyclopenta[f]indazol-5-yl]methyl}-N-(2-methoxyethyl)-1-methyl-3-(trifluoromethyl)-1H-pyrazole-4-sulfonamide] | 10.7 | 398
COC(=O)c1ccccc1CS(=O)(=O)N(C[C@H]1CCC2=Cc3c(cnn3-c3ccc(F)cc3)C[C@@]21C)C[C@@H](C)O [Example 180, methyl 2-[({{[(4αR,5S)-1-(4-fluorophenyl)-4α-methyl-1,4,4α,5,6,7-hexahydrocyclopenta[f]indazol-5-yl]methyl}[(2R)-2-hydroxypropyl]amino}sulfonyl)methyl]benzoatee] | 38.1 | 247
C[C@]12Cc3cnn(-c4ccc(F)cc4)c3C=C1CC[C@@H]2CN(CC#N)S(=O)(=O)c1ccccc1Cl [Example 50, 2-chloro-N-(cyanomethyl)-N-{[(4αR,5S)-1-(4-fluorophenyl)-4α-methyl-1,4,4α,5,6,7-hexahydrocyclopenta[f]indazol-5-yl]methyl}benzenesulfonamide] | 15.1 | 949
C[C@]12Cc3cnn(-c4ccc(F)cc4)c3C=C1CC[C@@H]2CN(CC#N)S(=O)(=O)c1ccc(-c2ccccc2)cc1 [Example 42, N-(cyanomethyl)-N-{[(4αR,5S)-1-(4-fluorophenyl)-4α-methyl-1,4,4α,5,6,7-hexahydrocyclopenta[f]indazol-5-yl]methyl}biphenyl-4-sulfonamide] | 4.2 | 228
Cc1noc(C)c1S(=O)(=O)N(CCCc1ccccc1)C[C@H]1CCC2=Cc3c(cnn3-c3ccc(F)cc3)C[C@@]21C [Example 194, N-{[(4αR,5S)-1-(4-fluorophenyl)-4α-methyl-1,4,4α,5,6,7-hexahydrocyclopenta[f]indazol-5-yl]methyl}-3,5-dimethyl-N-(3-phenylpropyl)isoxazole-4-sulfonamide] | 41.9 | 517
COC(=O)c1ccccc1CS(=O)(=O)N(CCc1ccccc1F)C[C@H]1CCC2=Cc3c(cnn3-c3ccc(F)cc3)C[C@@]21C [Example 188, methyl 2-{[([2-(2-fluorophenyl)ethyl]{[(4αR,5S)-1-(4-fluorophenyl)-4α-methyl-1,4,4α,5,6,7-hexahydrocyclopenta[f]indazol-5-yl]methyl}amino)sulfonyl]methyl}benzoate] | 30.4 | 236
CN1CCOc2cc(S(=O)(=O)N(CC#N)C[C@H]3CCC4=Cc5c(cnn5-c5ccc(F)cc5)C[C@@]43C)ccc21 [Example 39, N-(cyanomethyl)-N-{[(4αR,5S)-1-(4-fluorophenyl)-4α-methyl-1,4,4α,5,6,7-hexahydrocyclopenta[f]indazol-5-yl]methyl}-4-methyl-3,4-dihydro-2H-1,4-benzoxazine-7-sulfonamide] | 1.7 | 5000
CCS(=O)(=O)N(CCOC)C[C@H]1CCC2=Cc3c(cnn3-c3ccc(F)cc3)C[C@@]21C [Example 171, N-{[(4αR,5S)-1-(4-fluorophenyl)-4α-methyl-1,4,4α,5,6,7-hexahydrocyclopenta[f]indazol-5-yl]methyl}-N-(2-methoxyethyl)ethanesulfonamide] | 71.3 | 287
C[C@]12Cc3cnn(-c4ccc(F)cc4)c3C=C1CC[C@@H]2CN(CCCc1ccccc1)S(=O)(=O)CC(F)(F)F [Example 193, 2,2,2-trifluoro-N-{[(4αR,5S)-1-(4-fluorophenyl)-4α-methyl-1,4,4α,5,6,7-hexahydrocyclopenta[f]indazol-5-yl]methyl}-N-(3-phenylpropyl)ethanesulfonamide] | 55.4 | 303
C[C@]12Cc3cnn(-c4ccc(F)cc4)c3C=C1CC[C@@H]2CN(CC#N)S(=O)(=O)c1ccc(F)c(Cl)c1 [Example 20, 3-chloro-N-(cyanomethyl)-4-fluoro-N-{[(4αR,5S)-1-(4-fluorophenyl)-4α-methyl-1,4,4α,5,6,7-hexahydrocyclopenta[f]indazol-5-yl]methyl}benzenesulfonamide] | 68.1 | 910
C[C@]12Cc3cnn(-c4ccc(F)cc4)c3C=C1CC[C@@H]2CN(CCO)S(=O)(=O)c1ccc(F)c(Cl)c1 [Example 19, 3-chloro-4-fluoro-N-{[(4αR,5S)-1-(4-fluorophenyl)-4α-methyl-1,4,4α,5,6,7-hexahydrocyclopenta[f]indazol-5-yl]methyl}-N-(2-hydroxyethyl)benzenesulfonamide] | 20.6 | 1190
CN(C[C@H]1CCC2=Cc3c(cnn3-c3ccc(F)cc3)C[C@@]21C)S(=O)(=O)CC(F)(F)F [Example 177, 2,2,2-trifluoro-N-{[(4αR,5S)-1-(4-fluorophenyl)-4α-methyl-1,4,4α,5,6,7-hexahydrocyclopenta[f]indazol-5-yl]methyl}-N-methylethanesulfonamide] | 67.3 | 169
CNC(=O)Nc1ccc(S(=O)(=O)N(CC2CC2)C[C@H]2CCC3=Cc4c(cnn4-c4ccc(F)cc4)C[C@@]32C)c(Cl)c1 [Example 14, 2-chloro-N-(cyclopropylmethyl)-N-{[(4αR,5S)-1-(4-fluorophenyl)-4α-methyl-1,4,4α,5,6,7-hexahydrocyclopenta[f]indazol-5-yl]methyl}-4-{[(methylamino)carbonyl]amino}-benzenesulfonamide] | 25.2 | 344
